According to patent US10144715B2, “Piperazine derivatives as liver X receptor modulators” (priority 2014, dated 2018):
Like-named read-outs stand apart in the source and are kept apart here.

Legend:
[1] = biological target: Gal4 DNA binding domain fused to the LBD of LXRα in HEK293 cells (Homo sapiens (Human), UniProt Q13133); experiment: LXR luciferase transcriptional reporter gene assay, agonist mode, LXRα; assay type: cell-based; settings: for EC50: read-out: Cell LXRα EC50
LXR β LBD protein [2] = biological target: T1, LXR β LBD protein (Homo sapiens (Human), UniProt P55055); experiment: biochemical; assay type: biochemical; settings: for EC50: read-out: FRET LXRβ EC50
Procedure: (§1) Two μL of the DMSO solutions were transferred to the plate and 38 μL of 10 nM LXRα-LBD or LXRβ-LBD (2×) were added immediately to the wells. The plate was shaken for 5 min at rt on an orbital micro shaker (DPC MicroMix® 5), after which 40 μL of 200 nM fluorescein-SRC2-3 peptide and 20 nM Terbium-anti-GST-antibody (Cat# PV3550, Life Technologies, Grand Island, N.Y.) solution (4×) were added to all. The plate was sealed and shaken for 2 min at rt, and incubated at rt for 2 h without agitation. […] The delay and window times were set at 100 and 200 microseconds, respectively. […] The percent control vs. compound concentration data were fit into a four-parameter model, and EC50 values were calculated from the fit as the concentrations corresponding to the inflection points on the concentration-response curves.
Target sequence in this assay (P55055 222-460): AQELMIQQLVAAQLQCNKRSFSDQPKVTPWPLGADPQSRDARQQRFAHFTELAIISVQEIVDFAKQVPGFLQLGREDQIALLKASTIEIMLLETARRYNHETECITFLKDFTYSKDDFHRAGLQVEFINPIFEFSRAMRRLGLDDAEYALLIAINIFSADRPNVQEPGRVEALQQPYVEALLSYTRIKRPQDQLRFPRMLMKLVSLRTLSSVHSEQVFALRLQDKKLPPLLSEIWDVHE

LXR α LBD protein [3] = biological target: T2, LXR α LBD protein (Homo sapiens (Human), UniProt Q13133); experiment: Human LXRα coactivator recruitment FRET assay, agonist mode; assay type: biochemical; settings: agonist mode
Procedure: as §1

[4] = biological target: Gal4 DNA binding domain fused to the LBD of LXRβ in HEK293 cells (Homo sapiens (Human), UniProt P55055); experiment: cell-based
LXR α LBD protein [5] = biological target: T2, LXR α LBD protein; experiment: LXR α radioligand binding assay (SPA, competition with [3H]TO901317); settings: read-out: LXRα Binding Ki
LXR β LBD protein [6] = biological target: T1, LXR β LBD protein; experiment: biochemical; assay type: binding; settings: read-out: LXRβ Binding Ki
Target sequence in this assay (P55055 222-460 limits assumed): as the sequence (P55055 222-460) above

[7] = agonist mode, read-out: Cell LXRβ EC50

Chain of Gal4 DNA binding domain fused to the LBD of LXRβ in HEK293 cells (P55055 222-460 limits assumed): as the sequence (P55055 222-460) above
Chain of Gal4 DNA binding domain fused to the LBD of LXRα in HEK293 cells (Q13133 209-447): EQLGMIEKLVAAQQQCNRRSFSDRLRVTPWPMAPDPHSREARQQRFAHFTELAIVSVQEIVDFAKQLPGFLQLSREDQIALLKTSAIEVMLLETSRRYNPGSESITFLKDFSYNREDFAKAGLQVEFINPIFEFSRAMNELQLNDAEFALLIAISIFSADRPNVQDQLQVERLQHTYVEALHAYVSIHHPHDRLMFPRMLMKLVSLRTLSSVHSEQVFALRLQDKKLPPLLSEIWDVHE
T2 sequence (Q13133 209-447): as above

Row | Molecule | EC50 [1] | FRET LXRβ efficacy (LXR β LBD protein [2]; agonist mode) | EC50 (LXR β LBD protein [2]; agonist mode) | EC50 (LXR α LBD protein [3]) | FRET LXRα efficacy (LXR α LBD protein [3]) | EC50 [4, 7] | FRET LXRβ efficacy (LXR β LBD protein [2]) | EC50 (LXR β LBD protein [2]) | EC50 [4] | Cell LXRβ efficacy [4] | EC50 ([1]; agonist mode) | Cell LXRβ efficacy ([4]; agonist mode) | Cell LXRα efficacy [1] | Ki (LXR α LBD protein [5]) | Ki (LXR β LBD protein [6])
1 | CS(=O)(=O)c1cc(N2CCN(C[C@H]3CC[C@H](C(F)(F)F)CC3)[C@H](c3ccccc3)C2)ccc1C(N)=O (single isomer, unassigned) [17-36] | > 20 µM | 79% | 1.18 µM | 0.808 µM | 46% | > 20 µM | – | – | – | – | – | – | – | – | –
2 | Cc1ccc(CN2CCN(c3cccc(S(C)(=O)=O)c3)C[C@H]2c2ccccc2)cc1 (single isomer, unassigned) [46-5] | > 20 µM | – | – | > 50 µM | – | – | 7159 (57) % | 7.16 µM | > 20 µM | – | – | – | – | – | –
3 | CS(=O)(=O)c1cccc(N2CCN(Cc3ccc(OC(F)(F)F)cc3)[C@H](c3ccccc3)C2)c1 (single isomer, unassigned) [46-22] | > 20 µM | – | – | 4.62 µM | 42% | – | 1273 (73) % | 1.27 µM | 2.1 µM | 2095 (9) % | – | – | – | – | –
4 | CS(=O)(=O)c1cccc(N2CCN(Cc3ccc(C(F)(F)F)c(F)c3)[C@H](c3ccccc3)C2)c1 (single isomer, unassigned) [46-25] | – | 17972 (116) % | – | > 50 µM | – | – | – | 18 µM | 2.56 µM | – | > 20 µM | 2557 (13) % | – | – | –
5 | C[C@@]1(c2ccccc2)CN(c2cccc(S(C)(=O)=O)c2)CCN1Cc1ccc(C(F)(F)F)c(Cl)c1 (single isomer, unassigned) [46-35] | – | – | – | > 50 µM | – | – | – | > 50 µM | > 20 µM | – | > 20 µM | – | – | – | –
6 | Cc1ccccc1[C@@H]1CN(c2cccc(S(C)(=O)=O)c2)CCN1Cc1ccc(C(F)(F)F)nc1 (single isomer, unassigned) [46-45] | – | 1524 (74) % | – | 6.57 µM | 43% | – | – | 1.52 µM | 7.52 µM | – | > 20 µM | 7516 (44) % | – | – | –
7 | CS(=O)(=O)c1cccc(N2CCN(Cc3ccc(C(F)(F)F)nc3)[C@H](c3ccccc3Cl)C2)c1 (single isomer, unassigned) [46-56] | > 20 µM | – | – | 27 µM | 47% | – | 2252 (40) % | 2.25 µM | > 20 µM | – | – | – | – | – | –
8 | CC(C)[C@H]1CC[C@H](CN2CCN(c3cccc(S(C)(=O)=O)c3)C[C@H]2c2ccccc2)CC1 (single isomer, unassigned) [48-14] | > 20 µM | 67% | 12.3 µM | > 50 µM | – | > 20 µM | – | – | – | – | – | – | – | – | –
9 | CS(=O)(=O)c1cccc(N2CCN(C[C@H]3CC[C@@H](C(F)(F)F)CC3)[C@H](c3ccccc3)C2)c1 (single isomer, unassigned) [48-30] | 4.51 µM | – | – | 12.9 µM | 55% | 1.63 µM | – | – | – | – | – | 28% | 4509 (17) % | 2.54 µM | –
10 | CC(C)[C@@H]1CN(c2ccc(F)c(S(C)(=O)=O)c2)CCN1c1nccc(C2CC2)n1 [7-10, (R)-4-cyclopropyl-2-(4-(4-fluoro-3-(methylsulfonyl)phenyl)-2-isopropylpiperazin-1-yl)pyrimidine] | 0.586 µM | – | – | 0.292 µM | 55% | – | – | – | 0.095 µM | 95 (23) % | – | – | 586 (42) % | 0.236 µM | 0.013 µM
11 | CC(C)[C@@H]1CN(c2ccc(F)c(S(C)(=O)=O)c2)CCN1c1nc2ccc(C#N)cc2s1 [7-53, (R)-2-(4-(4-fluoro-3-(methylsulfonyl)phenyl)-2-isopropylpiperazin-1-yl)benzo[d]thiazole-6-carbonitrile] | – | – | – | > 50 µM | – | – | – | – | 0.35 µM | – | 0.795 µM | 350 (26) % | 795 (40) % | 0.553 µM | 0.027 µM
12 | CC(C)[C@@H]1CN(c2cccc(S(N)(=O)=O)c2)CCN1c1nccc(C(F)(F)F)n1 [7-60, (R)-3-(3-isopropyl-4-(4-(trifluoromethyl)pyrimidin-2-yl)piperazin-1-yl)benzenesulfonamide] | – | – | – | 0.084 µM | 97% | – | – | – | 0.059 µM | – | 0.248 µM | 59 (75) % | 248 (95) % | 0.873 µM | 0.146 µM
13 | COC(=O)c1cnc(N2CCN(c3ccc(F)c(S(C)(=O)=O)c3)C[C@H]2C(C)C)nc1C(F)(F)F [9-2, methyl (R)-2-(4-(4-fluoro-3-(methylsulfonyl)phenyl)-2-isopropylpiperazin-1-yl)-4-(trifluoromethyl)pyrimidine-5-carboxylate] | – | – | – | – | – | – | 9 (91) % | 0.009 µM | 0.086 µM | 86 (34) % | 0.543 µM | – | 543 (54) % | 0.095 µM | 0.01 µM
14 | CS(=O)(=O)c1cccc(N2CCN(Cc3ccc(C(F)(F)F)cn3)[C@H](c3ccccc3)C2)c1 [46-63, (R)-4-(3-(methylsulfonyl)phenyl)-2-phenyl-1-((5-(trifluoromethyl)pyridin-2-yl)methyl)piperazine] | – | 50% | 7.1 µM | – | – | – | – | – | > 20 µM | – | – | – | – | – | –
15 | CS(=O)(=O)c1cccc(N2CCN(Cc3ccc(C(F)(F)F)cn3)[C@@H](c3ccccc3)C2)c1 [46-64, (S)-4-(3-(methylsulfonyl)phenyl)-2-phenyl-1-((5-(trifluoromethyl)pyridin-2-yl)methyl)piperazine] | – | 34% | 1.86 µM | – | – | – | – | – | 5.8 µM | – | – | 5804 (13) % | – | – | > 2.5 µM
16 | CS(=O)(=O)c1cccc(N2CCN(Cc3ccc(C(F)(F)F)o3)[C@H](c3ccccc3)C2)c1 [46-65, (R)-4-(3-(methylsulfonyl)phenyl)-2-phenyl-1-((5-(trifluoromethyl)furan-2-yl)methyl)piperazine] | – | 25% | 5.77 µM | – | – | – | – | – | > 20 µM | – | – | – | – | – | –
17 | CS(=O)(=O)c1cccc(N2CCN(Cc3ccc(C(F)(F)F)o3)[C@@H](c3ccccc3)C2)c1 [46-66, (S)-4-(3-(methylsulfonyl)phenyl)-2-phenyl-1-((5-(trifluoromethyl)furan-2-yl)methyl)piperazine] | – | – | > 50 µM | – | – | – | – | – | > 20 µM | – | – | – | – | – | 0.207 µM
18 | CS(=O)(=O)c1cccc(N2CCN(CC3CCC(F)(F)CC3)[C@@H](c3ccccc3)C2)c1 [48-13, (S)-1-((4,4-difluorocyclohexyl)methyl)-4-(3-(methylsulfonyl)phenyl)-2-phenylpiperazine] | – | – | – | 0.632 µM | 23% | – | – | – | – | – | 2.62 µM | – | 2624 (20) % | 0.867 µM | –
19 | CC(C)[C@@H]1CN(c2ccc(C(F)(F)F)c(S(C)(=O)=O)c2)CCN1C(=O)OC(C)(C)C [Cpd No 3-2, tert-butyl (R)-2-isopropyl-4-(3-(methylsulfonyl)-4-(trifluoromethyl)phenyl)piperazine-1-carboxylate] | – | – | – | 12 µM | 54% | – | – | – | – | – | 14.4 µM | – | 14412 (19) % | – | –
20 | Cc1cc(C)nc(N2CCN(c3cccc(S(C)(=O)=O)c3)C[C@H]2C(C)C)n1 [Cpd No 7-3, (R)-2-(2-isopropyl-4-(3-(methylsulfonyl)phenyl)piperazin-1-yl)-4,6-dimethylpyrimidine] | – | – | – | 0.51 µM | 36% | – | – | – | – | – | 7.92 µM | – | 7923 (24) % | – | –
21 | CC(C)[C@@H]1CN(c2cccc(S(C)(=O)=O)c2)CCN1c1ncc(C2CC2)cn1 [Cpd No 7-5, (R)-5-cyclopropyl-2-(2-isopropyl-4-(3-(methylsulfonyl)phenyl)piperazin-1-yl)pyrimidine] | 0.501 µM | – | – | 0.313 µM | 60% | – | – | – | 0.093 µM | 93 (32) % | – | – | 501 (64) % | 0.346 µM | 0.026 µM
22 | CS(=O)(=O)c1cccc(N2CCN(Cc3ccc(C(F)(F)F)c(Cl)c3)[C@@H](Cc3ccccc3)C2)c1 [Cpd No 45-1, (S)-2-benzyl-1-(3-chloro-4-(trifluoromethyl)benzyl)-4-(3-(methylsulfonyl)phenyl)piperazine] | 3.62 µM | – | – | – | 39% | – | – | – | – | – | – | – | 3618 (61) % | – | –
23 | CC1(C)CCC(CN2CCN(c3cccc(S(C)(=O)=O)c3)C[C@H]2c2ccccc2)CC1 [Cpd No 48-3, (R)-1-((4,4-dimethylcyclohexyl)methyl)-4-(3-(methylsulfonyl)phenyl)-2-phenylpiperazine] | 4.27 µM | – | – | 5.19 µM | 31% | – | – | – | – | – | – | – | 4273 (20) % | 2.34 µM | –
24 | tert-butyl (S)-2-isobutyl-4-(3-(methylsulfonyl)phenyl)piperazine-1-carboxylate [1-2] | 9.22 µM | – | – | 6.81 µM | 55% | – | – | – | – | – | – | – | 9219 (6) % | – | –
